Reference: US20260250291A1, “INHIBITORS OF FGFR2 AND FGFR3 AND USES THEREOF” (Insilico Medicine IP Limited, priority 2023, published 2026)

Tests used:
[1] = target: T1, FGFR1 (Homo sapiens, UniProt P11362); experiment: FGFR biochemical assay (LanthaScreen TR-FRET), FGFR1; details: ATP 28 μM, FGFR1 0.01 nM
T1 construct: purchased Carna
Protocol: (§1) The following procedure was used to test the compounds described herein: • Dilute the test compounds to 100× of the final desired highest concentration in reaction by 100% DMSO. • Perform a serial dilution in a 384-well source plate by transferring 15 μL to 30 μL of […] DMSO in the next well and so forth for a total of 10 concentrations. • Dispense 100 nL of compound solution each well from the source plate to a 384-well assay plate in duplicates by Echo (Labcyte). • Prepare a solution of 2× FGFR enzyme (Carna) in kinase buffer (50 mM HEPES, pH 7.5, 10 mM MgCl2, 4 mM DTT, 0.01% Tween-20 and 0.01% BSA). The final concentration of FGFR1/2/3/4 is 0.01. 0.01, 0.1 and 1 nM, respectively. • Add 5 μL of kinase solution to each well of the compound-containing assay plate, except for low control wells without enzyme (add 5 μL of 1× kinase buffer instead). • Shake the plate and incubate at room temperature for 10 minutes (for Example 1) (or 60 min for the remaining Examples in Table 4). • Prepare the substrate solution of Fluorescein-Poly GT (Invitrogen) and ATP (Sigma) in 1× kinase reaction buffer at 2-fold of the final concentration of each reagent desired in the assay (final concentration of ATP is 28, 22, 35 and 238 μM for FGFR1/2/3/4 respectively; Fluorescein-Poly GT is fixed at 20 nM). • Add 5 μL of substrate solution to each well of the assay plate to initiate the kinase reaction. • Shake the plate shortly and incubate at room temperature for 30 minutes. • Prepare 2× detection solution in Antibody Dilution Buffer (LanthaScreen® Tb—PY20 Antibody Kit, Invitrogen). • Add 10 μL of detection solution to each well of the assay plate to stop the reaction. • Mix briefly with centrifuge and incubate at room temperature for 60 minutes before reading on a microplate reader. • Collect data on Envision with excitation at 340 nm and emission at 520 nm and 495 nm. • Calculate Ratio of RFU 520 nm/RFU 495 nm. Convert Ratio values to percent inhibition values (Percent inhibition=(max−sample Ratio)/(max−min)*100) where “min” means the Ratio of no enzyme control and “max” means the Ratio of DMSO control. • Data are analyzed and curve fitting is performed by XLFit Excel add-in version 5.4.0.8. The IC50 calculation equation is: Y=Bottom+(Top−Bottom)/(1+(IC50/X)^HillSlope.

[2] = target: T2, FGFR2 (Homo sapiens, UniProt P21802); experiment: FGFR biochemical assay (LanthaScreen TR-FRET), FGFR2; details: ATP 22 μM, FGFR2 0.01 nM
T2 construct: purchased Carna
T2 sequence (P21802 22-821): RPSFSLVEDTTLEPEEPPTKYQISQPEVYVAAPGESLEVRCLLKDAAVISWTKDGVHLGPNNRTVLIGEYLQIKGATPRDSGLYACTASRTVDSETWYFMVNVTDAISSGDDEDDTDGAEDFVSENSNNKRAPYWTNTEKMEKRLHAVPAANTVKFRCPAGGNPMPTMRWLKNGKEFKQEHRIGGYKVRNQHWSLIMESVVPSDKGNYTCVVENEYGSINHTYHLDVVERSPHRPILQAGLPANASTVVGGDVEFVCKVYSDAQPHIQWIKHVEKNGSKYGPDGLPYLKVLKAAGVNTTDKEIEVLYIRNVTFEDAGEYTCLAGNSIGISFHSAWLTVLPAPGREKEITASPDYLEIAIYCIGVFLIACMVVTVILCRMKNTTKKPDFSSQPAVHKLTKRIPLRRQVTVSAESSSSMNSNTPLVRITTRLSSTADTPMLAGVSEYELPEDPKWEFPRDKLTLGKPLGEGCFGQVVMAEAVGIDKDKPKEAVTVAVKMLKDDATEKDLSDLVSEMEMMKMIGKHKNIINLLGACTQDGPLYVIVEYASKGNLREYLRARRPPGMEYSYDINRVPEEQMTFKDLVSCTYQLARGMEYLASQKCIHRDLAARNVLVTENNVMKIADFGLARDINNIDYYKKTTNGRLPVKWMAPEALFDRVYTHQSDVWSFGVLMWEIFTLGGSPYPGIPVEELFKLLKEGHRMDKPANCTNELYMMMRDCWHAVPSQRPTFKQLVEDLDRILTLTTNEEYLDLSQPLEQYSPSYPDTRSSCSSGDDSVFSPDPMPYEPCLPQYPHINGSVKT
Protocol: as §1

[3] = target: T3, FGFR3 (Homo sapiens, UniProt P22607); experiment: FGFR biochemical assay (LanthaScreen TR-FRET), FGFR3; details: ATP 35 μM, FGFR3 0.1 nM
T3 construct: purchased Carna
T3 sequence (P22607 23-806): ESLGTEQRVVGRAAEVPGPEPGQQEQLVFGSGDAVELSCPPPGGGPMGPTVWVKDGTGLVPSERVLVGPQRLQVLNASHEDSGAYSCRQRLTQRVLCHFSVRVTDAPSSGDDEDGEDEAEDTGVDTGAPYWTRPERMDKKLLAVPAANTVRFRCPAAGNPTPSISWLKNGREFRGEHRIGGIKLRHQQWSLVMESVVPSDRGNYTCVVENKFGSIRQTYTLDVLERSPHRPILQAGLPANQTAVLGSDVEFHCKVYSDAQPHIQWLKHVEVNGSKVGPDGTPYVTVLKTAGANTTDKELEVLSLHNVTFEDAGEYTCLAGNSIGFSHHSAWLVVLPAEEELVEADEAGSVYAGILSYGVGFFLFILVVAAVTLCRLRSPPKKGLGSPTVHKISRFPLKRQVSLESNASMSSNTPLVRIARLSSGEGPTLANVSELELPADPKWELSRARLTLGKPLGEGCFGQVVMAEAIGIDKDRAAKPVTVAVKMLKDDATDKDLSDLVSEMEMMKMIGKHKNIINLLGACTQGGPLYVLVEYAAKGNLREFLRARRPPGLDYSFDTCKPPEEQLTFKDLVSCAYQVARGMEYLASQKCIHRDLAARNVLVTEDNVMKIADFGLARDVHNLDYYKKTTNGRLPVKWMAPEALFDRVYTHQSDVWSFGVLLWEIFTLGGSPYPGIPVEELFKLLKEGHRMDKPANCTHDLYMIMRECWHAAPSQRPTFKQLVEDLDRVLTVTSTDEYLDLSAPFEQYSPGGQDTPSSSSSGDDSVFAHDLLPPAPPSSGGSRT
Protocol: as §1

[4] = tested on: SNU-16 (FGFR2); experiment: Cellular proliferation assay (CellTiter-Glo), SNU-16; type: cell-based; details: Homo sapiens, SNU-16 cells, 72 hours
Protocol: (§2) Compounds were tested proliferation assay in SNU-16, KATO-III, SNU-1, AGS, AN3CA, MFE280, MKN45, KLE, RT112-84, RT4, T24, UM-UC-3, KMS11, OPM-2, RAPI8226, U266, SUM 52PE, MCF7 and BaF3 cell lines. Test compounds were prepared in 10 mM DMSO stock solutions, add […] 1000× stock solution to 98 μL growth medium to get […] final concentration, 3-fold 9-points dilution was performed. Cell lines suspension of 95 μL were seeded into 96-well plate and incubated at 37° C. for 24 hours, add 5 μL 20× compounds solutions to 96-well plate according to the plate map with Echo550 liquid handler. Final DMSO concentration in each well is 0.1%, cell lines were incubated at 37° C. for 72 hours, then equilibrate the assay plate to room temperature before measurement, add 50 μL of CellTiter-Glo® Reagent into each well, mix contents for 2 minutes on an orbital shaker to induce cell lysis and incubate at room temperature for 10 minutes to stabilize luminescent signal, Chemiluminescence was then read on an EnVision reader. Inhibition Rate (Inh. %) was calculated relative to vehicle (DMSO) treated control wells using following formula: Inhibition Rate (Inh %)=100−(RLU compound−RLU blank)/(RLU control−RLU blank)*100%, Data were analyzed using Graphpad Prism 7.0, fitting to a 4-parameter equation to generate concentration response curves.

[5] = tested on: RT4 (FGFR3); experiment: Cellular proliferation assay (CellTiter-Glo), RT4; type: cell-based; details: Homo sapiens, RT-4, RT4 cells, 72 hours
Protocol: as §2

[6] = enzyme pre-incubation 10 minutes (for Example 1)

T1 sequence (P11362 22-822): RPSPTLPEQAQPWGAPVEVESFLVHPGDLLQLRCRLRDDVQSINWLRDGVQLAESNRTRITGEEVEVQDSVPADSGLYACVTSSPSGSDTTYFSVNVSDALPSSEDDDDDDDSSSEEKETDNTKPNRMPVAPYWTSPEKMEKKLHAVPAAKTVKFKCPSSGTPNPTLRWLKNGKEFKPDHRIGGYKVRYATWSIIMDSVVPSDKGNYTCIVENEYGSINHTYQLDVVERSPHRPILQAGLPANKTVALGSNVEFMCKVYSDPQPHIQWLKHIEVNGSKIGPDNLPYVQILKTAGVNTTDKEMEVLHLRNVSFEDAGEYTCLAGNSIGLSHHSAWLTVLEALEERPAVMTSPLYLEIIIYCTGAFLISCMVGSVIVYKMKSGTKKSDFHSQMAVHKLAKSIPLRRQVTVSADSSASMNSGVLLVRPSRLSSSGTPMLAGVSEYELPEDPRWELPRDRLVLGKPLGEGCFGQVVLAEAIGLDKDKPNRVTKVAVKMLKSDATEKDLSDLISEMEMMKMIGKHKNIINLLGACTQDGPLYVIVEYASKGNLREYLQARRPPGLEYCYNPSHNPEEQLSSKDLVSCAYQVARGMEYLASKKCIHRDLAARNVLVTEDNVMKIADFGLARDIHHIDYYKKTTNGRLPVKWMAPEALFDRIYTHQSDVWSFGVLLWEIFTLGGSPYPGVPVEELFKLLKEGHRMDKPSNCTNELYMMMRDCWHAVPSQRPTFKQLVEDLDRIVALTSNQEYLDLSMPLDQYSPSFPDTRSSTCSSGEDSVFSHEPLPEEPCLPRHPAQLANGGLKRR

Compound	IC50 [1, 6]	IC50 [2, 6]	IC50 [3, 6]	IC50 ([1]; enzyme pre-incubation 60 min)	IC50 ([2]; enzyme pre-incubation 60 min)	IC50 ([3]; enzyme pre-incubation 60 min)	IC50 [4]	IC50 [5]
C=CC(=O)Nc1ccc(-c2c(-c3ccc(Oc4cccc(C)n4)cc3)c(C(N)=O)n3cccnc23)cc1 [Example 1]	100 to 1000 nM	< 10 nM	10 to 100 nM	–	–	–	–	–
C=C(F)C(=O)Nc1ccc(-c2c(-c3ccc(Oc4nccc(C)n4)c(F)c3)c(C(N)=O)n3cc(C)cnc23)cc1 [Example 2]	–	–	–	100 to 1000 nM	< 10 nM	10 to 100 nM	< 10 nM	10 to 100 nM
C=C(F)C(=O)Nc1ccc(-c2c(-c3ccc(Oc4nccc(C)n4)c(F)c3)c(C(N)=O)n3cc(C)ncc23)cc1 [Example 3]	–	–	–	100 to 1000 nM	< 10 nM	10 to 100 nM	< 10 nM	10 to 100 nM
C=C(F)C(=O)Nc1ccc(-c2c(-c3ccc(Oc4nccc(C)n4)c(F)c3)c(C(N)=O)n3ccc(C)nc23)cc1 [Example 4]	–	–	–	100 to 1000 nM	10 to 100 nM	100 to 1000 nM	10 to 100 nM	100 to 1000 nM
C=C(F)C(=O)Nc1ccc(-c2c(-c3ccc(Oc4nccc(C)n4)c(F)c3)c(C(N)=O)n3cc(C4CC4)cnc23)cc1 [Example 5]	–	–	–	100 to 1000 nM	10 to 100 nM	10 to 100 nM	10 to 100 nM	10 to 100 nM
C=C(F)C(=O)Nc1ccc(-c2c(-c3ccc(Oc4nccc(C)n4)cc3)c(C(N)=O)n3cc(N4CCN(C)CC4)cnc23)cc1 [Example 6]	–	–	–	100 to 1000 nM	< 10 nM	10 to 100 nM	–	–
C=C(F)C(=O)Nc1ccc(-c2c(-c3ccc(Oc4nccc(C)n4)c(F)c3)c(C(N)=O)n3cc(CC)cnc23)cc1 [Example 7]	–	–	–	> 1000 nM	< 10 nM	100 to 1000 nM	–	10 to 100 nM
C=C(F)C(=O)Nc1ccc(-c2c(-c3ccc(Oc4nccc(C)n4)c(F)c3)c(C(N)=O)n3cc(N4CCOCC4)cnc23)cc1 [Example 8]	–	–	–	> 1000 nM	< 10 nM	10 to 100 nM	< 10 nM	10 to 100 nM
C=C(F)C(=O)Nc1ccc(-c2c(-c3ccc(Oc4nccc(C)n4)c(F)c3)c(C(N)=O)n3cc(-c4cnn(C)c4)cnc23)cc1 [Example 9]	–	–	–	100 to 1000 nM	< 10 nM	100 to 1000 nM	–	–
C=C(F)C(=O)Nc1ccc(-c2c(-c3ccc(Oc4nccc(C)n4)c(F)c3)c(C(N)=O)n3cc(C#CC)cnc23)cc1 [Example 10]	–	–	–	100 to 1000 nM	10 to 100 nM	100 to 1000 nM	–	–
C=C(F)C(=O)Nc1ccc(-c2c(-c3ccc(Oc4nccc(C)n4)c(F)c3)c(C(N)=O)n3cccnc23)cc1 [Example 11]	–	–	–	100 to 1000 nM	< 10 nM	10 to 100 nM	–	–
C=C(F)C(=O)Nc1ccc(-c2c(-c3ccc(Oc4nccc(C)n4)c(F)c3)c(C(N)=O)n3ccccc23)cc1 [Example 12]	–	–	–	100 to 1000 nM	< 10 nM	10 to 100 nM	–	–
CC#CC(=O)Nc1ccc(-c2c(-c3ccc(Oc4nccc(C)n4)c(F)c3)c(C(N)=O)n3cc(C)cnc23)cc1 [Example 13]	–	–	–	100 to 1000 nM	< 10 nM	10 to 100 nM	< 10 nM	10 to 100 nM
Cc1cnc2c(-c3ccc(NC(=O)/C=C/CN(C)C)cc3)c(-c3ccc(Oc4nccc(C)n4)c(F)c3)c(C(N)=O)n2c1 [Example 14]	–	–	–	100 to 1000 nM	< 10 nM	10 to 100 nM	< 10 nM	10 to 100 nM
C=C(F)C(=O)Nc1ccc(-c2c(-c3ccc(Oc4nccc(C)n4)cc3Cl)c(C(N)=O)n3cc(C)cnc23)cc1 [Example 15]	–	–	–	> 1000 nM	100 to 1000 nM	100 to 1000 nM	–	–
C=C(F)C(=O)Nc1ccc(-c2c(-c3ccc(Oc4nccc(C)n4)c(F)c3)c(C(N)=O)n3cc(Cl)cnc23)cc1 [Example 16]	–	–	–	100 to 1000 nM	10 to 100 nM	100 to 1000 nM	–	–
C=C(F)C(=O)N1CCc2cc(-c3c(-c4ccc(Oc5nccc(C)n5)c(F)c4)c(C(N)=O)n4cc(C)cnc34)ccc21 [Example 17]	–	–	–	100 to 1000 nM	< 10 nM	< 10 nM	< 10 nM	10 to 100 nM
C=C(F)C(=O)Nc1ccc(-c2c(-c3ccc(Oc4nccc(C)n4)c(F)c3)c(C(N)=O)n3cc(C)cnc23)c(F)c1 [Example 18]	–	–	–	10 to 100 nM	< 10 nM	< 10 nM	–	–
C=C(C)C(=O)Nc1ccc(-c2c(-c3ccc(Oc4nccc(C)n4)c(F)c3)c(C(N)=O)n3cc(C)cnc23)c(F)c1 [Example 19]	–	–	–	> 1000 nM	10 to 100 nM	100 to 1000 nM	–	–
C=C(F)C(=O)Nc1ccc(-c2c(-c3ccc(Oc4nccc(C)n4)cc3)c(C(N)=O)n3cc(C)cnc23)cc1 [Example 20]	–	–	–	100 to 1000 nM	< 10 nM	10 to 100 nM	< 10 nM	10 to 100 nM
Cc1cnc2c(-c3ccc(NC(=O)/C(F)=C/CN(C)C)cc3)c(-c3ccc(Oc4nccc(C)n4)c(F)c3)c(C(N)=O)n2c1 [Example 21]	–	–	–	> 1000 nM	10 to 100 nM	10 to 100 nM	–	–
Cc1cnc2c(-c3ccc(NC(=O)/C=C/CNC4COC4)cc3)c(-c3ccc(Oc4nccc(C)n4)c(F)c3)c(C(N)=O)n2c1 [Example 22]	–	–	–	100 to 1000 nM	< 10 nM	10 to 100 nM	< 10 nM	10 to 100 nM
Cc1cnc2c(-c3ccc(NC(=O)/C=C/CN4CC(O)C4)cc3)c(-c3ccc(Oc4nccc(C)n4)c(F)c3)c(C(N)=O)n2c1 [Example 23]	–	–	–	10 to 100 nM	< 10 nM	< 10 nM	10 to 100 nM	100 to 1000 nM
